For data set [1], the system named is human lung fibroblasts (HLF). Kind of data set: HLF proliferation by BrdU incorporation (DELFIA), driven by FBS or PDGF. It counts as cell-based. Conditions: Homo sapiens, Fibroblast, inhibition of BrdU incorporation, 24 h, NC = not calculated due to incomplete curve; for EC50: mean ± SEM. How it is done:
Proliferation of HLF was measured by incorporation of bromodeoxyuridine (BrdU). HLF were seeded overnight at 4000 cells/well in 96-well black ViewPlates, before being starved for 24 h in culture medium devoid of FBS. Proliferation was measured after incubation with a range of concentrations of FBS or PDGF, in DMEM supplemented with 0.1% w/v HSA, for 24 h.
For anti-remodelling assays using BrdU incorporation, cells were incubated for 24 h with a range of concentrations of test compounds in the presence of near maximal concentrations of FBS or PDGF in DMEM supplemented with 0.1% w/v HSA. Proliferation was assessed using the DELFIA BrdU incorporation assay kit following manufacturer protocol. Fluorescence was measured using a Packard EnVision plate reader. To account for the inter-assay variation in levels of proliferation in each experiment, data were normalized to the PDGF or FBS response.

The test system of data set [2] is human lung fibroblasts (HLF). Briefly: Cell viability assay, caspase-3/7 as marker of apoptosis. It counts as cell-based. Particulars: 24 h. How it is done:
Cell viability was measured using caspase-3/7 expression as a marker of apoptosis after treatment for 24 h with test compounds. HLF were seeded overnight at 6,000 cells/well in 96-well black ViewPlates, before being starved for 24 hours in culture medium devoid of FBS. Cells were incubated for 24 hours in the presence of test compounds at the top concentrations used in the proliferation assays, or in the presence of 100 nM staurosporine to induce apoptosis.
The presence of the apoptotic marker caspase-3/7 was detected by incubating cells with 8 μM CellEvent™ Caspase-3/7 Red Detection Reagent in dPBS with 5 % FBS, for 30 minutes at 37°C. […] Images were analyzed using a multi wavelength cell scoring algorithm within the MetaXpress 5.3 software, which measures cell number using stained nuclei, and percent of these cells positive for caspase-3/7 from Cy5 readouts. To account for the inter-assay variation in levels of caspase 3/7 detected in each experiment, data were normalized to the staurosporine response.
Statistical significance across treatment groups was determined by using the one-way ANOVA with Dunnett’s multiple-comparison post hoc test.

Data set [3] has as its system human lung fibroblasts (HLF). Briefly: Fibroblast to myofibroblast transdifferentiation (FMT), αSMA immunofluorescence, TGFβ-driven. In kind it is cell-based. Conditions: 48 h, TGFβ 0.3 ng/mL. How it is done:
To assess the differentiation of fibroblasts to the myofibroblast phenotype, immunofluorescence was used to monitor increases in α smooth muscle actin (αSMA). HLF were seeded overnight at 1000 cells/well in 384-well black clear bottom plates, before being starved for 24 h growth medium devoid of FBS.
For anti-remodelling assays using FMT, cells were incubated for 48 h with a range of concentrations of test compounds and incubated for 48 h, at 37°C, 5% CO2 in the presence of a near maximal concentration of TGFβ (0.3 ng/mL), to promote differentiation in DMEM supplemented with 0.1% w/v HSA. Following stimulation, cells were fixed in 4% paraformaldehyde, washed 3× in PBS (with Ca^2+/Mg^2+), and incubated with permeabilising blocking buffer (dPBS (with Ca^2+/Mg^2+), 10% FBS (v/v), 0.1% Triton X-100 (v/v)) for 1 h at 37°C. Wells were then washed 3× in wash buffer (Tris Buffered Saline (TBS), 0.05% (v/v) Tween-20) and incubated with mouse anti-α SMA (1:1000 dilution in permeabilising blocking buffer) for 1 h at room temperature, with gentle shaking. Following 3× wash in wash buffer, wells were incubated with blocking buffer containing Hoechst to stain for nuclear DNA (2 μM), and FITC-conjugated Affini-pure goat […] IgG (1:1000 dilution in blocking buffer) for 30 min at 37°C. Fluorescence was then quantified on a widefield ImageXpress Micro microscope, with a Plan Fluor 20X objective, DAPI filter cube (excitation 400–418 nm, emission 435–470 nm), 50 ms exposure time for nuclei, and FITC filter cube (excitation 467–498 nm, emission 513–556 nm), 200 ms exposure time for αSMA.
To quantify increases in αSMA fluorescence, a standard Multi-Wavelength Cell Scoring algorithm was used in MetaXpress 5.3 software (Molecular Devices, California, USA). To account for the inter-assay variation in levels of αSMA expression produced in each experiment, data were normalized to the response to TGFβ.

Data set [4] has as its system human lung fibroblasts (HLF). Kind of data set: PDGF-mediated ERK phosphorylation (pERK imaging). In kind it is cell-based. Conditions: 30 min pre-incubation, 3 ng/mL PDGF for 10 min. How it is done:
HLF were seeded overnight at 6000 cells/well in 96-well black clear bottom plates then starved for 24 h in the growth medium devoid of all additives. […] Fluorescence was then quantified on the InCell2000, using DAPI settings to visualize nuclei (0.1 s exp) and FITC settings for pERK (2 s exp). To quantify levels of pERK fluorescence, a standard Multi-Target Analysis algorithm was used in the INCell Analyzer Workstation (v3.7.1). To account for the inter-assay variation in levels of ERK phosphorylation produced in each experiment, data were normalized to the EC80 PDGF response.

Data set [5] in a line: Agonist concentration remaining after incubation with HLF. Particulars: after 24 h incubation with HLF; unpublished data. In kind it is in vitro ADME, human.
In data set [6] the test system is human lung fibroblasts (HLF). Kind of data set: cAMP accumulation in HLF (HitHunter or AlphaScreen). It counts as cell-based. Particulars: Homo sapiens, Fibroblast, HLF, 2 h, mean ± SEM, NC = not calculated due to incomplete curve; for EC50: room temperature, 5 μM rolipram (excluded for PDE inhibitors), at least 3 experiments, read-out: cAMP pEC50 (converted); for Emax: percentage of the maximal forskolin response, read-out: cAMP Emax (% max). How it is done: HLF were grown to confluency in 96-well white ViewPlates, before incubation with a range of agonist concentrations, or vehicle, for 2 h at room temperature in HBSS with 5 mM HEPES, 0.1% w/v HSA, and 5 μM rolipram. […] Rolipram was excluded when measuring cAMP levels in response to PDE inhibitors. cAMP levels were measured using either HitHunter cAMP assay or AlphaScreen competition assay following manufacturer protocol, and were assessed on either a BMG LABTEK ClarioStar or a Packard EnVision plate reader. cAMP concentrations in each well were determined using a standard curve. To account for the inter-assay variation in levels of cAMP produced in each experiment, data were normalized to the maximal forskolin response.

The subject of data set [7] is human lung fibroblasts (HLF). Briefly: Fibroblast to myofibroblast transdifferentiation (FMT), αSMA immunofluorescence, TGFβ-driven. In kind it is cell-based. Conditions: data not shown.
The mark [8] stands for this setting: EC80 PDGF, percentage of maximal proliferation observed with PDGF, read-out: Proliferation vs PDGF Emax (% max).
[9] abbreviates: EC80 concentration of PDGF, read-out: Proliferation vs PDGF pEC50 (converted).
[10] abbreviates: EC80 concentration of serum, read-out: Proliferation vs serum pEC50 (converted).
[11] abbreviates: EC80 serum, percentage of maximal proliferation observed with serum, read-out: Proliferation vs serum Emax (% max).

Consider `C=C[C@@]1(C)CC(=O)[C@]2(O)[C@@]3(C)[C@@H](O)CCC(C)(C)[C@@H]3[C@H](O)[C@H](OC(C)=O)[C@@]2(C)O1` [Forskolin], for which the Emax is 90.8 ± 9.12% in data set [1] (setting [8]) and 74 ± 6.7% in data set [1] (setting [11]). In addition, the values for the EC50 in data set [1] (setting [9]) and in data set [1] (setting [10]) were 1050 nM and 5250 nM, respectively. In data set [2] (human, 3 μM), the “% cells positive for caspase-3/7, 1:10 dilution” value (“% cells positive … 1:10 dilution” for short) amounted to 0.61 ± 0.15%. Further, the “% cells positive for caspase-3/7, Top conc” value (shortened to “% cells positive … Top conc”) in data set [2] (human, 30 μM) is reported as 1.26 ± 0.35%. For the same compound, in data set [3], the “inhibition of TGFβ-driven FMT (in words)” value is on record as “completely inhibit FMT”. Moreover, the “inhibition of PDGF-mediated ERK phosphorylation (in words)” value in data set [4] is “inhibited PDGF-mediated ERK phosphorylation”.
`CC(C)N(CCCCOCC(=O)O)c1cnc(-c2ccccc2)c(-c2ccccc2)n1` [MRE-269]: the Emax is 85.7 ± 7.65% in data set [1] (setting [8]) and 52.9 ± 4.36% in data set [6]. Besides, the EC50 is 316 nM in data set [1] (setting [9]) and 178 nM in data set [6]. Also, in data set [2] (HLF, 1:10 dilution of top conc 10 μM), the “% cells positive … 1:10 dilution” value came to 0.49 ± 0.22%. In addition, the “% cells positive … Top conc” value in data set [2] (HLF, top conc 10 μM, mean ± SEM, n=3) was 0.49 ± 0.21%. Also, the “original concentration of agonist remaining” value in data set [5] was greater than 90%. The “inhibition of TGFβ-driven FMT (in words)” value in data set [3] is “completely inhibit FMT”.
For `CCCCC[C@H](O)CC[C@@H]1[C@H]2Cc3cccc(OCC(=O)O)c3C[C@H]2C[C@H]1O` [Treprostinil], the Emax was 63.7 ± 6.39% in data set [1] (setting [8]), 42.5 ± 5.36% in data set [1] (setting [11]) and 101 ± 0.58% in data set [6]. Besides, the EC50 in data set [1] (setting [9]) was 29.5 nM; in data set [1] (setting [10]), 102 nM; in data set [6] it was 151 nM. Moreover, the “% cells positive … 1:10 dilution” value in data set [2] (human, 1 μM) is 0.92 ± 0.25%. In addition, the “% cells positive … Top conc” value in data set [2] (human, 10 μM) stood at 0.76 ± 0.06%. Also, the “original concentration of agonist remaining” value in data set [5] was greater than 90%.
Consider Transforming growth factor β [TGFβ], for which, in data set [7], the “EC50 for promoting FMT” value is listed as 0.07 ± 0.01 ng/mL.
